Laboratory results: patent US20200339691A1, “PROTEINACEOUS MOLECULES AND USES THEREFOR” (priority 2018, published 2020)
Where a SMILES comes first, the peptide text is derived from it. The star is where a group is joined. Myristoyl = CCCCCCCCCCCCCC(=O)*

Legend:
[1] = tested on: CD44^hiCD24^lo CSCs in MDA-MB-231 cells; assay: FACS analysis of CD44^hiCD24^lo cancer stem cells in MDA-MB-231 cells treated with P1 analogues; assay type: cell-based, human; settings: 50 μM peptide, 48 hours; for CD44^hiCD24^lo CSCs (%) / COI, Live Single CD44^hiCD24^lo CSCs (Cell Count): n = 1; for Average Inhibition of CSCs (%) / CD44^hiCD24^lo CSCs (%) Repeat 1 / CD44^hiCD24^lo CSCs (%) Repeat 2 / CD44^hiCD24^lo CSCs (%) Repeat 3: n = 3
Experimental: Analogues of P1 (Table 6) were designed and synthesized in accordance with the procedure of Example 5. The ability of these analogues to inhibit cancer stem cells was determined using FACS analysis on MDA-MB-231 cells, which constitutively contain approximately 90% CD44^hiCD24^lo cancer stem cells, treated with the peptides.
(§1) Non-adherent cells were removed during the washing steps.

MDA-MB-231 cells = assay type: cell-based, human; settings: 50 μM peptide, 48 hours, n = 1
Text: as §1
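For COI, Live Single Cells (Cell Count) in this document: live means Hoechst-negative events among single cells.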

SMILES	Inhibition of CSCs (%) Repeat 1 [1] [%]	Inhibition of CSCs (%) Repeat 2 [1] [%]	Inhibition of CSCs (%) Repeat 3 [1] [%]	CD44^hiCD24^lo CSCs (%) [1] [%]	COI, Live Single CD44^hiCD24^lo CSCs (Cell Count) [1]	Average Inhibition of CSCs (%) [1] [%]	CD44^hiCD24^lo CSCs (%) Repeat 1 [1] [%]	CD44^hiCD24^lo CSCs (%) Repeat 2 [1] [%]	CD44^hiCD24^lo CSCs (%) Repeat 3 [1] [%]	COI (Cell Count) (MDA-MB-231 cells)	COI, Live Single Cells (Cell Count) (MDA-MB-231 cells)	COI, Single (Cell Count) (MDA-MB-231 cells)	Total Cell Count (MDA-MB-231 cells)
CCCCCCCCCCCCCC(=O)N[C@H](C(=O)N[C@@H](Cc1ccccc1)C(=O)N[C@H](C(=O)N[C@@H](Cc1ccccc1)C(=O)N[C@@H](C)C(=O)N[C@@H](CC(C)C)C(=O)N[C@@H](CCCNC(=N)N)C(=O)N[C@@H](CCCCN)C(=O)NCC(=O)N[C@@H](CCCNC(=N)N)C(=O)N[C@@H](CCSC)C(=O)N[C@@H](CCSC)C(=O)N[C@@H](CC(=O)O)C(=O)N[C@H](C(=O)N[C@@H](CCCCN)C(=O)N[C@@H](CCCCN)C(N)=O)C(C)C)[C@@H](C)CC)[C@@H](C)O [Peptide 2815306, Myristoyl-TFIFALRKGRMMDVKK-NH2] (Myristoyl-TFIFALRKGRMMDVKK-NH2)	67.33	69.17	70.79	27.73	66	69.09	29.28	27.66	26.21	323	238	280	9352
CCCCCCCCCCCCCC(=O)N[C@@H](CC(C)C)C(=O)N[C@H](C(=O)N[C@@H](Cc1ccccc1)C(=O)N[C@@H](CCC(=O)O)C(=O)N[C@@H](Cc1ccccc1)C(=O)N[C@@H](CCCNC(=N)N)C(=O)N[C@@H](CC(C)C)C(=O)N[C@@H](CCCNC(=N)N)C(=O)N[C@@H](CCCCN)C(=O)NCC(=O)N[C@@H](CCCNC(=N)N)C(=O)N[C@@H](CCSC)C(=O)N[C@@H](CCSC)C(=O)N[C@@H](CC(=O)O)C(=O)N[C@H](C(=O)N[C@@H](CCCCN)C(=O)N[C@@H](CCCCN)C(N)=O)C(C)C)[C@@H](C)O [Peptide 2853810, Myristoyl-LTFEFRLRKGRMMDVKK-NH2] (Myristoyl-LTFEFRLRKGRMMDVKK-NH2)	87.14	87.82	83.75	13.58	74	86.23	11.53	10.93	14.58	778	545	613	3451
CCCCCCCCCCCCCC(=O)N[C@@H](CC(C)C)C(=O)N[C@H](C(=O)N[C@@H](Cc1ccccc1)C(=O)N[C@H](C(=O)N[C@@H](Cc1ccccc1)C(=O)N[C@@H](CCCNC(=N)N)C(=O)N[C@@H](CC(C)C)C(=O)N[C@@H](CCCNC(=N)N)C(=O)N[C@@H](CCCCN)C(=O)N[C@H](C(=O)N[C@@H](CCCNC(=N)N)C(=O)N[C@@H](CCSC)C(=O)N[C@@H](CCSC)C(=O)N[C@@H](CC(=O)O)C(=O)N[C@H](C(=O)N[C@@H](CCCCN)C(=O)N[C@@H](CCCCN)C(N)=O)C(C)C)C(C)C)[C@@H](C)CC)[C@@H](C)O [Peptide 2853829, Myristoyl-LTFIFRLRKVRMMDVKK-NH2] (Myristoyl-LTFIFRLRKVRMMDVKK-NH2)	89.50	91.73	94.67	5.88	4	91.97	9.41	7.42	4.79	167	68	131	10000
CCCCCCCCCCCCCC(=O)N[C@@H](CC(C)C)C(=O)N[C@H](C(=O)N[C@@H](Cc1ccccc1)C(=O)N[C@H](C(=O)N[C@@H](Cc1ccccc1)C(=O)N[C@@H](CCCNC(=N)N)C(=O)N[C@@H](CC(C)C)C(=O)N[C@@H](CCCNC(=N)N)C(=O)N[C@@H](CCCCN)C(=O)NCC(=O)N[C@@H](CCCNC(=N)N)C(=O)N[C@@H](CCSC)C(=O)N[C@@H](CCSC)C(=O)N[C@@H](CC(=O)O)C(=O)N[C@H](C(=O)N[C@@H](CCCCN)C(=O)N[C@@H](Cc1ccc(O)cc1)C(N)=O)C(C)C)[C@@H](C)CC)[C@@H](C)O [Peptide 2853847, Myristoyl-LTFIFRLRKGRMMDVKY-NH2] (Myristoyl-LTFIFRLRKGRMMDVKY-NH2)	25.89	27.27	26.71	62.59	2640	26.62	66.42	65.25	65.76	5345	4218	4268	10000
CCCCCCCCCCCCCC(=O)N[C@@H](CC(C)C)C(=O)N[C@H](C(=O)N[C@@H](Cc1ccccc1)C(=O)N[C@H](C(=O)N[C@@H](Cc1ccccc1)C(=O)N[C@@H](CCCNC(=N)N)C(=O)N[C@@H](CCCCN)C(=O)N[C@@H](CCCNC(=N)N)C(=O)N[C@@H](CCCCN)C(=O)NCC(=O)N[C@@H](CCCNC(=N)N)C(=O)N[C@@H](CCSC)C(=O)N[C@@H](CCSC)C(=O)N[C@@H](CC(=O)O)C(=O)N[C@H](C(=O)N[C@@H](CCCCN)C(=O)N[C@@H](CCCCN)C(N)=O)C(C)C)[C@@H](C)CC)[C@@H](C)O [Peptide 2853822, Myristoyl-LTFIFRKRKGRMMDVKK-NH2] (Myristoyl-LTFIFRKRKGRMMDVKK-NH2)	81.93	81.80	81.03	4.78	31	81.59	16.19	16.33	17.02	768	648	657	3204
CCCCCCCCCCCCCC(=O)N[C@@H](CC(C)C)C(=O)N[C@H](C(=O)N[C@@H](Cc1ccccc1)C(=O)N[C@H](C(=O)N[C@@H](Cc1ccccc1)C(=O)N[C@@H](CCCNC(=N)N)C(=O)N[C@@H](CC(C)C)C(=O)N[C@@H](CCCNC(=N)N)C(=O)N[C@@H](CCCCN)C(=O)NCC(=O)N[C@@H](CCC(=O)O)C(=O)N[C@@H](CCSC)C(=O)N[C@@H](CCSC)C(=O)N[C@@H](CC(=O)O)C(=O)N[C@H](C(=O)N[C@@H](CCCCN)C(=O)N[C@@H](CCCCN)C(N)=O)C(C)C)[C@@H](C)CC)[C@@H](C)O [Peptide 2853830, Myristoyl-LTFIFRLRKGEMMDVKK-NH2] (Myristoyl-LTFIFRLRKGEMMDVKK-NH2)	45.65	53.16	55.12	29.21	1312	51.31	48.71	42.02	40.27	5072	4491	4600	8489
CCCCCCCCCCCCCC(=O)N[C@@H](CC(C)C)C(=O)N[C@H](C(=O)N[C@@H](Cc1ccccc1)C(=O)N[C@H](C(=O)N[C@@H](Cc1ccccc1)C(=O)N[C@@H](CCCNC(=N)N)C(=O)N[C@@H](CC(C)C)C(=O)N[C@@H](CCCNC(=N)N)C(=O)N[C@@H](CCCCN)C(=O)N[C@@H](CC(=O)O)C(=O)N[C@@H](CCCNC(=N)N)C(=O)N[C@@H](CCSC)C(=O)N[C@@H](CCSC)C(=O)N[C@@H](CC(=O)O)C(=O)N[C@H](C(=O)N[C@@H](CCCCN)C(=O)N[C@@H](CCCCN)C(N)=O)C(C)C)[C@@H](C)CC)[C@@H](C)O [Peptide 2853827, Myristoyl-LTFIFRLRKDRMMDVKK-NH2] (Myristoyl-LTFIFRLRKDRMMDVKK-NH2)	95.44	91.08	89.47	1.64	1	92.00	4.09	8.00	9.45	170	61	110	4681
